Assay results reported in patent US20250388542A1, “ANALOGUES OF PENTAMIDINE AND USES THEREFOR” (Auransa Inc., priority 2018, published 2025).

What was measured:
Human microsomal CL rate = format: in vitro ADME; details: human microsomes
NCI-H69 = assay: CellTiter-Glo luminescent cell viability assay; format: cell-based; details: Homo sapiens
Experimental: (§1) The objective of this study is to investigate potential cell killing effect of Compounds 1-15 on 3 cancer cell lines. 50% inhibition concentration (IC50) was determined for these compounds in various cancer cell lines using CellTiter-Glo™ luminescent cell viability assay at different compound concentrations. Each cell line (e.g., NCI-H209; NCI-H69; and SW1271) was treated with Compounds 1-15 and culture medium contains 0.2% [v/v] DMSO vehicle control. All the cells were cultured in the media supplemented with 10-20% fetal bovine serum at 37° C., 5% CO2 and 95% humidity.

NCI-H209 = assay: CellTiter-Glo luminescent cell viability assay; format: cell-based; details: Homo sapiens
Experimental: as §1

SW1271 = assay: CellTiter-Glo luminescent cell viability assay; format: cell-based
Experimental: as §1

HEP3B2.7-1 = assay: CellTiter-Glo cell viability, liver cell lines, 8 days; format: cell-based; details: HEP3B2.7-1, Table 5, similar experiment
Experimental: (§2) The objective of this study is to investigate the effect of Compound 1 on cell viability of various types of liver cancer. Ten (10) different liver cancer cell lines were employed in the study. Each liver cell line shown in Table 4 was treated with Compound 1, pentamidine, as reference control, a standard of care (cisplatin) and culture medium contains 0.2% [v/v] DMSO vehicle control and IC50 values were obtained as described above. The raw data values from the CellTiter-Glo™ cell viability assay expressed in relative luminescence units were normalized to the vehicle for each individual plate, and any reduction in luminescence indicated a decrease in viability (%). The data was analyzed in GraphPad PRISM using a non-linear sigmoidal plot with variable slope (asymmetric four-point linear regression), and an IC50 value for each compound was generated. The experiment tested pentamidine, compound 1, and standard-of-care control Cisplatin in full growth media for 8 days. Cells were initially treated with the test compounds on Day 0, and the cells were then replenished with fresh compound dilutions on Day 3. Pentamidine, Compound 1, and cisplatin were tested at 9 concentration points; 100, 33.33, 11.11, 3.70, 1.23, 0.41, 0.14, 0.05, and 0.02 μM (final DMSO concentration=0.5%). In particular, the IC50 values of pentamidine and Compound 1 were 0.8 and 0.6 μM in Hep3B-luc, respectively.

SK-HEP-1 = assay: as above; format: cell-based; details: Homo sapiens, SK-HEP1, SK-HEP-1, Table 5, similar experiment
Experimental: as §2

[1] = Pharmacokinetics in liver and tissues after oral administration; format: in vivo, mice; details: p.o.
Experimental: Compound 1 (20 mg per kg), Compound 5 (10 mg per kg), and pentamidine (20 mg per kg) were tested for their PK. Tissue samples were collected as described above in Example 23. Briefly, blood samples (approximately […]) were collected under light isoflurane anesthesia from retro orbital plexus of mice at 0.5, 1, 3, 8, 48 and 72 hr. Plasma samples were separated by centrifugation at 2,000×g for 6 minutes and stored below −70±10° C. until bioanalysis. Immediately after collection of blood, animals were euthanized using excess CO2 asphyxiation and samples were collected from set of five mice at each time point. Collected tissue samples were immediately dipped and rinsed three times in ice cold PBS (for 5-10 seconds/rinse using ˜5-10 mL fresh PBS in disposable petri dish for each rinse) and dried on blotting paper. Tissue samples were homogenized using ice-cold phosphate buffer saline (pH7.4) and homogenates were stored below −70±10° C. until analysis. Total homogenate volume was three times the tissue weight except for liver samples, total homogenate volume was ten times the liver weight. Bioanalysis process was determined by fit-for-purpose LC-MS/MS method.
Calibration standards were prepared by spiking the test compound into blank plasma. 10 μL of working calibration standard was spiked into 190 μL of blank Mice Plasma or tissue homogenate to generate linearly spiked calibration standards. Calibrator concentrations were 5,000, 2,000, 1,000, 200, 100, 20, 10, 2 and 1 ng/mL. Calibration standard samples were processed along with the test samples. Twenty-five μL aliquots of plasma or tissue homogenate test samples were treated with 100 μL of acetonitrile containing internal standard (500 ng/mL Glipizide). Samples were vortexed for 5 minutes. Samples were centrifuged for 10 minutes at a speed of 4000 rpm at 4° C. Following centrifugation, 100 μL of clear supernatant was transferred in 96-well plates of and analyzed using LC-MS/MS. Chromatographic separation was achieved using a Kintex Polar column (C18, 100×4.6 mm, 5μ) and column oven temperature 45° C. For compound 1 diHCl the mobile phase A was water with 0.1% formic acid in Acetonitrile; mobile phase B was 10 mM ammonium formate. However, the mobile phase for pentamidine and Compound 5 mobile phase A was water with 0.1% formic acid and mobile phase B acetonitrile with 0.1% formic acid.
The gradient program for Compound 1 was as follows: 5% B (1-2.40 min), 90% B (2.60-3.00 min), and the initial for B was 90%. The retention rate was 1.47 per minute and the internal standard Glipizide was 1 per 9 minutes. The column was maintained at 45° C. For pentamidine and Compound 5, analysis was performed using 233 MassSpec by AB Sciex API5000 with Turbo Ion Spray interface operating in a positive ionization mode. Quantification was performed using multiple reaction monitoring (MRM) method with the transitions of (m/z) 328 à (m/z) 311 for Compound 5 and (m/z) 548 à (m/z) 366 for Edoxaban (internal standard). While, for pentamidine (m/z) 341 à (m/z) 324 and (m/z) 548 à (m/z) 366 for Verapmil (internal standard).
The gradient program for Compound 5 was as follows: 10% B (0-0.2 min), 95% B (1.5-2 min), the initial for B was 10% and it stopped at 2.6 mins. The flow rate was 0.5 mL/min. The gradient program for pentamidine was as follows: 10% B (0-0.2 min), 95% B (1.4-2 min), the initial for B was 10% and it stopped at 2.5 mins. The flow rate was 0.5 mL/min.

[2] = test system: A549-NLR cells with anti-CD3 stimulated PBMC; assay: Primary human T cell killing assay; format: cell-based
Experimental: In this study, A549-NLR cells were cultured alone or with PBMC's isolated from blood of three healthy donors in the presence of anti-CD3 stimulation. […] A549 growth was quantified by enumerating NucLight+ cells and A549 apoptosis by Caspase-3/7+ expression (colocalised to NucLight signal) every 2 hours for 96 hours.
All test conditions were applied to A549-NLR cells in the presence of stimulated PBMC. The number of A549 cells was tracked by IncuCyte live cell imaging over 96 hrs. The number of A549 cells at each time-point was counted and expressed as a percentage of the starting number (on a per well basis). At each time-point, the frequency of target cell apoptosis was quantified.

SMILES | microsomal CLint (Human microsomal CL rate) [µL/min/mg] | IC50 (NCI-H69) [µM] | also measured
N=C(N)c1cccc(CCCCCCCc2cccc(C(=N)N)n2)n1 [Compound 8, 6,6′-(heptane-1,7-diyl)dipicolinimidamide] | 11 | 0.687 | 
N=C(N)c1ccc(CCCCCCCc2ccc(C(=N)N)cn2)nc1 [Compound 10, 6,6′-(heptane-1,7-diyl)dinicotinimidamide] |  | 22.2 | 
N=C(N)c1ccc(O[C@H]2CC[C@H](Oc3ccc(C(=N)N)nc3)CC2)cc1 [Compound 13, 5-(((1r,4r)-4-(4-carbamimidoylphenoxy)cyclohexyl)oxy)picolinimidamide] | 11 | 2.11 | 
N=C(N)c1ccc(OCCCCCOc2ccc(C(=N)N)cn2)cc1 [Compound 2, 6-((5-(4-carbamimidoylphenoxy)pentyl)oxy)nicotinimidamide] | 9.8 | 3.48 | IC50 (NCI-H209): 9.38 µM; IC50 (SW1271): 1.6 µM
N=C(N)c1ccc(OCCCOc2ccc(C(=N)N)nc2)cc1 [Compound 17, 5-(3-(4-carbamimidoylphenoxy)propoxy)picolinimidamide] | 8.1 |  | 
N=C(N)c1ccc(OCCCCCOc2cnc(C(=N)N)cn2)cc1 [Compound 4, 5-((5-(4-carbamimidoylphenoxy)pentyl)oxy)pyrazine-2-carboximidamide] |  |  | IC50 (HEP3B2.7-1): 1.91 µM; IC50 (SK-HEP-1): 5.95 µM
N=C(N)c1ccc(O[C@H]2CC[C@@H](Oc3ccc(C(=N)N)nc3)CC2)cc1 [Compound 14, 5-(((1s,4s)-4-(4-carbamimidoylphenoxy)cyclohexyl)oxy)picolinimidamide] | 15.3 | 1.1 | 
N=C(N)c1ccc(OCCCCCOc2cnc(C(=N)N)nc2)cc1 [Compound 3, 5-((5-(4-carbamimidoylphenoxy)pentyl)oxy)pyrimidine-2-carboximidamide] |  | 2.91 | IC50 (NCI-H209): 3.47 µM; IC50 (SW1271): 3.47 µM
N=C(N)c1ccc(OCCCCOc2ccc(C(=N)N)nc2)cn1 [Compound 16, 5,5′-(butane-1,4-diylbis(oxy))dipicolinimidamide] | 4.6 |  | 
N=C(N)c1ccc(OCCCCOc2ccc(C(=N)N)nc2)cc1 [Compound 5, 5-(4-(4-carbamimidoylphenoxy)butoxy)picolinimidamide] | 3.9 | 0.876 | IC50 (NCI-H209): 2.78 µM; IC50 (HEP3B2.7-1): 0.207 µM; IC50 (SK-HEP-1): 0.73 µM; exposure to the liver vs pentamidine (20 mpk) ([1]; Compound 1 20 mpk, Compound 5 10 mpk): greater exposure to the liver than pentamidine; half-life relative to Compound 1 ([1]; liver): approximately 3 fold; half-life vs pentamidine ([1]; liver): higher half-life than pentamidine; tissue exposure ([1]; liver, small intestine, ileum): increased exposure in the liver as well as small intestine and ileum; exposure to the plasma ([1]; plasma vs other tissues): low in comparison to other tissues
N=C(N)c1cc(OCCCCCOc2ccnc(C(=N)N)c2)ccn1 [Compound 21] | 5.1 |  | 
N=C(N)c1ccc(CC[C@@H]2CCC[C@H](CCc3ccc(C(=N)N)nc3)C2)cc1 [Compound 18, 5-{2-[(1R,3S)-3-[2-(4-carbamimidoylphenyl)ethyl]cyclohexyl]ethyl}pyridine-2-carboximidamide] | 9.5 |  | 
N=C(N)c1ccc(OCCCCCOc2ccnc(C(=N)N)c2)cc1 [Compound 19, 4-{[5-(4-carbamimidoylphenoxy)pentyl]oxy}pyridine-2-carboximidamide] | 27.7 |  | IC50 (HEP3B2.7-1): 0.222 µM; IC50 (SK-HEP-1): 0.84 µM
N=C(N)c1cccc(OCCCCCOc2ccnc(C(=N)N)c2)c1 [Compound 15, 4-(5-(3-carbamimidoylphenoxy)pentyloxy)picolinimidamide] | 3.2 | 0.49 | 
N=C(N)c1cnc(OCCCCCOc2cnc(C(=N)N)cn2)cn1 [Compound 7, 5,5′-(pentane-1,5-diylbis(oxy))bis(pyrazine-2-carboximidamide)] |  | 0.804 | immune cell-mediated A549 cell apoptosis (Caspase-3/7+) ([2]; 0.3, 1 and 3 μM, three donors, 96 hours): enhancement of immune cell-mediated A549 cell apoptosis in 2 of 3 donors in a dose dependent manner; effect compared with positive control (IL-2) ([2]; highest concentration tested (3 μM)): comparable effect to the positive control (IL-2)
N=C(N)c1cncc(CCCCCCCc2cncc(C(=N)N)c2)c1 [Compound 9, 5,5′-(heptane-1,7-diyl)dinicotinimidamide] | 13 | 5.28 | 
N=C(N)c1ccc(OCCCCCOc2ccc(C(=N)N)nc2)cn1 [Compound 20, 5-({5-[(6-carbamimidoylpyridin-3-yl)oxy]pentyl}oxy)pyridine-2-carboximidamide] | 4 |  | 
N=C(N)c1ccc(OCCCCCOc2ccnc(C(=N)N)c2)cn1 [Compound 12, 4-((5-((6-carbamimidoylpyridin-3-yl)oxy)pentyl)oxy)picolinimidamide] | 7.5 | 1.58 | 
N=C(N)c1cccc(OCCCCCOc2ccc(C(=N)N)nc2)c1 [Compound 11, 5-(5-(3-carbamimidoylphenoxy)pentyloxy)picolinimidamide] | 5.2 | 0.62 | 
